Assay results from patent publication US9862925B2, “Human stem cell-derived neural precursors for treatment of autoimmune diseases of the central nervous system” (Hadasit Medical Research Services & Development Limited, priority 2007, dated 2018).

How the values were obtained:
[1] = test system: hESC-derived multipotent uncommitted neural precursors; test: Oligodendroglial differentiation of hESCs with retinoic acid and purmorphamine, propagation in low purmorphamine; assay type: cell-based, human
Procedure: To derive an expandable population of neural precursors enriched for oligodendroglial progenitors (committed), initial neuralization of hESCs was induced as above with or without noggin supplementation. After 2 weeks of culturing in NPM supplemented with mitogens +/−noggin the clusters were treated with RA (1-10 μM; preferably 1 μM) and the hedgehog agonist, Purmurphamine (Merck) (0.5-2 μM; preferably 0.5 μM) to induce ventral-caudal specification of the neuralized cells. Following 7-21 days, preferably 21 days of treatment, the cultures were further propagated for three to 20 more weeks as floating spheres in modified Sato medium supplemented with low concentrations of purmorphamine (0.2-0.5 μM; preferably 0.5 μM), bFGF (20 ng/ml), EGF (20 ng/ml), (NT3; 5 ng/ml) and ascorbic acid (200 nM). For final differentiation, the clusters were plated on poly-D-Lysine (10 μg/ml) and fibronectin (5 μg/ml) coated coverslips in modified Sato medium supplemented with NT3 ([…]), ascorbic acid (200 nM) T3 (40 ng/ml) IGF1 (10 ng/ml;) with or without Rock inhibitor (10 μM; Sigma) for 2-21 days.
To develop expandable cultures enriched for oligodendroglial committed progenitors, hESCs clusters were induced to differentiate as free floating clusters into multipotent uncommitted neural precursors as above with or without noggin. After two weeks of initial neural induction the multipotent uncommitted neural precursors were further cultured for 1-3 weeks, preferably 3 weeks, as floating spheres in modified Sato medium supplemented with mitogens, retinoic acid (RA) and the hedgehog (HH) agonist purmorphamine. During this culture period the early multipotent neural precursors gradually become enriched with Olig2+ oligodendroglial precursors (30-50% of total cells).
For further expansion of the oligodendroglial precursors, the floating spheres were propagated in Sato medium supplemented with mitogens, and low concentrations (0.5 μM) of purmorphamine. After 3-20 weeks of propagation as free floating clusters and plating on fibronectin for 24-48 hours, expression of the OPC markers Olig2 (FIG. 8A), PDGFRα (FIG. 8B) and NG2 (FIG. 8C) were detected in 30%, 20% and 20% of the differentiating cells, respectively. Following further 7-21 days of differentiation in the presence of NT3, AA, T3 and IGF1 +/− Rock inhibitor, markers of mature oligodendrocytes such as O4 (FIG. 8D), GalC (FIG. 8E) and MBP (FIG. 8F) were detected in 20%, 15% and 3% of the plated cells, respectively.

hESCs = test: In vitro oligodendroglial differentiation of hESCs following retinoic acid treatment; assay type: cell-based, human; details: RA treatment
Procedure: Derivation of enriched population of committed oligodendrocyte progenitor cells (OPCs): Initial neural differentiation of hESC was induced as described above for the derivation of enriched population of uncommitted neural precursors. Following two weeks of culturing of hESC clusters in NPM supplemented with noggin (700 ng/ml), and the oligodendroglial mitogens bFGF (20 ng/ml) and EGF (20 ng/ml), the cultures were treated with retinoic acid (RA) (sigma) (10 μM) to induce caudal specification of the neuralized cells. Following 7 days of RA treatment, cultures were propagated as floating spheres in the oligodendroglial specific, modified Sato medium supplemented with the oligodendroglial mitogens bFGF (20 ng/ml), EGF (20 ng/ml) and PDGF-AA (50 ng/ml), and the oligodendroglial survival and maturation factors neurotrophine 3 (NT3) (5 ng/ml) and triiodothyronine (T3) (40 ng/ml).
In vitro oligodendroglial differentiation of hESCs was examined. The experimental protocol included initial induction of human ESCs to differentiate as free floating clusters, under defined culture conditions, in the presence of noggin into early multipotent neural precursors according to the published protocols as described above. After two weeks, they were treated with retinoic acid (RA) and propagated as floating spheres in modified Sato medium and mitogens At sequential week intervals, differentiation was induced by plating on fibronectin and withdrawal of the mitogens, and the expression of oligodendroglial markers were analyzed by immunostaining. After three weeks of propagation as free floating clusters, followed by plating and differentiation for 48 hours, the differentiating cells expressed the oligodendroglial markers NG2 (12%) (FIGS. 7A,[…], 7D, 7F) GD3 (20%) (FIGS. 7B, 7C) and PDGFRα (15%) (FIGS. 7E, 7F). Although at this stage of three weeks propagation, when enrichment for OPCs was obtained, markers of mature oligodendrocytes such as O4 and GalC were not detected, even after 7-10 days of differentiation. Only in cultures that were propagated for more than 5 weeks and induced to differentiate for 7 days, O4 and GalC were expressed by 3% and 1% of differentiating cells, respectively (FIGS. 7G, 7I (O4) and FIGS. 7H, 7I (GalC). Nuclei in FIGS. 7C, 7F, 7G-7I were counter stained with DAPI.

[2] = after RA + purmorphamine, 3-20 weeks propagation with 0.5 μM purmorphamine, plated on fibronectin 24-48 hours
[3] = propagation with 0.5 μM purmorphamine, further 7-21 days differentiation with NT3, AA, T3, IGF1 +/- Rock inhibitor
[4] = propagated more than 5 weeks, differentiated 7 days
[5] = three weeks propagation as floating clusters, differentiation 48 hours

Row | Compound | Olig2+ oligodendroglial precursors (of total cells) ([1]; 1-3 weeks as floating spheres in modified Sato medium with mitogens, RA and purmorphamine) | differentiating cells expressing NG2 [1, 2] [%] | differentiating cells expressing Olig2 [1, 2] [%] | differentiating cells expressing PDGFRα [1, 2] [%] | plated cells expressing GalC [1, 3] [%] | plated cells expressing MBP [1, 3] [%] | plated cells expressing O4 [1, 3] [%] | differentiating cells expressing GalC (hESCs; [4]) [%] | differentiating cells expressing O4 (hESCs; [4]) [%] | differentiating cells expressing GD3 (hESCs; [5]) [%] | differentiating cells expressing NG2 (hESCs; [5]) [%] | differentiating cells expressing PDGFRα (hESCs; [5]) [%]
1 | c1ccc2c(Oc3nc(Nc4ccc(N5CCOCC5)cc4)c4ncn(C5CCCCC5)c4n3)cccc2c1 [purmorphamine] | 30-50% | 20 | 30 | 20 | 15 | 3 | 20 |  |  |  |  | 
2 | CC1=C(/C=C/C(C)=C/C=C/C(C)=C/C(=O)O)C(C)(C)CCC1 [retinoic acid] |  |  |  |  |  |  |  | 1 | 3 | 20 | 12 | 15
